Test results: patent US8551727B2, “Gold nanoparticle based protease imaging probes and use thereof” (Korea Institute of Science and Technology, priority 2007, dated 2013)

What was measured:
[1] = Particle analysis of MMP selective gold nanosensor (TEM and light scattering); format: physicochemical
Description: For the gold nanoparticle derivatives prepared in Example 1-3, the size of nanoparticle was measured using transmission electron microcopy (TEM) and light scattering (Brookhaven Instrument).

[2] = biological target: T1, MMP-2 (Homo sapiens, UniProt P08253); assay: Fluorescence exhibition due to enzyme degradation of gold nanosensor by activated MMP-2 (96-well, Kodak Image Station); format: biochemical; conditions: 37° C., 2 hours
T1 sequence (P08253 110-660): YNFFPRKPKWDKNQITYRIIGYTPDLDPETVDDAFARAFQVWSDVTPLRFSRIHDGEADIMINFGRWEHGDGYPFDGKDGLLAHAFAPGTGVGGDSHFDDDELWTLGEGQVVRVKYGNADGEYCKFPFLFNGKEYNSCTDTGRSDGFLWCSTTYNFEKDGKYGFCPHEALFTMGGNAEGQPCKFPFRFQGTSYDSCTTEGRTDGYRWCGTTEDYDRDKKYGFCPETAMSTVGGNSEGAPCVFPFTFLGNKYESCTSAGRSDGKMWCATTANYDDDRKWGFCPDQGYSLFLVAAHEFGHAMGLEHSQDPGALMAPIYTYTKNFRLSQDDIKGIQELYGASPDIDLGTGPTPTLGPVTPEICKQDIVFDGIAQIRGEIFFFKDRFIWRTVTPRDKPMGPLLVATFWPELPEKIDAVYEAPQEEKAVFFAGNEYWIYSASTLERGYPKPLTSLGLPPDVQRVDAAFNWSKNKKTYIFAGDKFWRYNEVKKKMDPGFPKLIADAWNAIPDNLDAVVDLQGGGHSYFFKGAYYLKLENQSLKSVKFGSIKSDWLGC
Description: (§1) A gold nanosensor was reacted respectively with MMP-2 and MMP-13 each activated in the 96-well, a scramble peptide (i.e., a peptide having the same amino acid contained structure but having different sequence so as not to act as a substrate with respect to a specific enzyme) and MMP-2/MMP-2 inhibitor at temperature of 37° C. for 2 hours, and thereafter a fluorescence exhibition due to the enzyme degradation was observed.
(§2) First, in order to activate the MMP-2 and MMP-13, the MMPs were added into a TCNB mixture (containing 0.1M of tris, 5 mM of calcium chloride, 200 mM of NaCl and 0.1% of Brij) having 2.5 mmol/L of p-aminophenyl mercuric acid added thereto, so as to be reacted at temperature of 37° C. for 1 hour. The activated MMP-2 and MMP-13 were reacted with the gold nanosensor in 200 μL of mixture in each well at temperature of 37° C. for 2 hours, and thereafter the degree of the fluorescence was observed using Kodak Image Station 4000MM Digital Imaging System built in a […] (Charge Coupled Device) camera.
The MMP gold nanosensor was used to quantitatively analyze the concentration of MMP-2 protease. In more detail, according to the same experimental way to that in Example 2-2, each of activated MMP-2s having concentrations of 0, 1.4, 3.5, 7 and 14 nmol/L, respectively, was added to the MMP-2 gold nanosensor to be reacted at temperature of 37° C. for 2 hours, and then the degree of the fluorescence was observed using the Kodak Image Station 4000MM Digital Imaging System.

[3] = biological target: MMP-13 (Homo sapiens, UniProt P45452); assay: Fluorescence exhibition due to enzyme degradation of gold nanosensor by activated MMP-13 (96-well, Kodak Image Station); format: biochemical; conditions: state (c), 37° C., 2 hours
Description: as §1, §2

[4] = tested on: Invasive squamous cell carcinoma (SCC7); assay: Real-time imaging of cancerous tissue in cancer animal models; format: in vivo, C3H/HeN mouse; conditions: 100 ul
Description: Invasive squamous cell carcinoma (SCC7) was injected into C3H/HeN mouse to create a cancer animal model. For the cancerous tissue with a size of more than 5 mm, the MMP-2 gold nanosensor was injected into the cancerous tissue, to thereafter estimate the possibility of imaging the cancer cell.
The invasive squamous cell carcinoma (SCC7) is known as a cancer cell expressing a great amount of MMP-2. The experiment was performed with respect to three animal test groups including a normal mouse having MMP-2 gold nanosensor (100 ul, 10 nM/mL) injected thereinto and a cancer mouse also having MMP-2 gold nanosensor (100 ul, 10 nM/mL) injected thereinto, and a cancer mouse having both MMP-2 gold sensor and MMP-2 inhibitor injected thereinto.

[5] = tested on: cancerous tissue overexpressing MMP-2 (SCC7); assay: Fluorescence of gold nanosensor in removed cancerous tissue; format: in vivo, C3H/HeN mouse
Description: Depending on whether the MMP-2 inhibitor was injected into the cancerous tissue overexpressing MMP-2, the fluorescence of the MMP-2 gold nanosensor was observed.

Substance: Cy5.5-GPLGLFARC-Gold [MMP selective gold nanosensor]
- size of nanoparticle (average) [1]: approximately 20 nm
- fluorescence, MMP-2 added ([2]; MMP-2 added): bright fluorescence was exhibited
- fluorescence versus MMP-2 concentration ([2]; activated MMP-2 at 0, 1.4, 3.5, 7 and 14 nmol/L): increased in proportion to the concentration of the added MMP-2 enzyme
- fluorescence, MMP-2 not added ([2]; state (a), no MMP-2): fluorescence quenched
- fluorescence in the reaction with MMP-2 inhibitor ([2]; state (e), MMP-2/MMP-2 inhibitor): no fluorescence is emitted
- fluorescence with respect to MMP-13 [3]: rarely exhibits fluorescence
- fluorescence in mouse with cancer cell ([4]; Au NP (SCC7 tumor), 10 nM/mL injected into cancerous tissue): emitted high fluorescence as time elapses
- fluorescence in normal mouse ([4]; normal mouse without the cancer cell, 10 nM/mL injected): did not exhibit fluorescence
- fluorescence in removed cancerous tissue treated with MMP-2 inhibitor ([5]; cancerous tissue (+inh)): remarkably low fluorescence
- fluorescence in removed cancerous tissue not treated with MMP-2 inhibitor ([5]; cancerous tissue (−inh)): remarkably high fluorescence
